Results from PubChem BioAssay (NCI).
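The compound was tested at five concentrations on cells cultured in 96-well plates, with a 48-hour exposure period. Definition used: TGI = concentration required for complete inhibition of growth.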 *1 amine or outer side, *2 acyl side, *3 side chain or, on linkers, in order; H or OH if unused. Where a SMILES comes first, the peptide text is derived from it. Bridges are numbered along the chain shown (N, C = ends). Roman numbers before positions name the chains, in order. [ ]: non-standard residue; d: D form. ξ: configuration not given here. X54 = N=C(N)NCCC[C@@H](NC(=N)CCCCCCC(=N)N[C@H](CCCNC(=N)N)C(=O)[*:2])C(=O)[*:1]; dIgl = N[C@@H](C(=O)O)C1Cc2ccccc2C1; Hyp = O=C(O)[C@@H]1C[C@@H](O)CN1; ξIgl = NC(C(=O)O)C1Cc2ccccc2C1; ξOic = O=C(O)C1CC2CCCCC2N1; ξR = N=C(N)NCCCC(N)C(=O)O; ξP = O=C(O)C1CCCN1; ξS = NC(CO)C(=O)O

Legend:
Experiment in all cases: NCI anticancer screen, dose series, 48 h
HL-60(TB) leukemia = system: HL-60(TB) leukemia
ACHN renal = system: ACHN renal
MALME-3M melanoma = system: MALME-3M melanoma
SN12C renal = system: SN12C renal
HT29 colon = system: HT29 colon
SF-295 CNS = system: SF-295 CNS
MDA-N = system: MDA-N
HS 578T breast = system: HS 578T breast
DU-145 prostate = system: DU-145 prostate
MDA-MB-231 breast = system: MDA-MB-231 breast
CCRF-CEM leukemia = system: CCRF-CEM leukemia
SNB-75 CNS = system: SNB-75 CNS
CAKI-1 renal = system: CAKI-1 renal
LOX IMVI melanoma = system: LOX IMVI melanoma
SF-539 CNS = system: SF-539 CNS
OVCAR-3 ovarian = system: OVCAR-3 ovarian
OVCAR-4 ovarian = system: OVCAR-4 ovarian
HCC-2998 colon = system: HCC-2998 colon
BT-549 breast = system: BT-549 breast

Structure (SMILES)	TGI (HL-60(TB) leukemia)	TGI (ACHN renal)	TGI (MALME-3M melanoma)	TGI (SN12C renal)	TGI (HT29 colon)	TGI (SF-295 CNS)	TGI (MDA-N)	TGI (HS 578T breast)	TGI (DU-145 prostate)	TGI (MDA-MB-231 breast)	TGI (CCRF-CEM leukemia)	TGI (SNB-75 CNS)	TGI (CAKI-1 renal)	TGI (LOX IMVI melanoma)	TGI (SF-539 CNS)	TGI (OVCAR-3 ovarian)	TGI (OVCAR-4 ovarian)	TGI (HCC-2998 colon)	TGI (BT-549 breast)
COc1ccc2nc3c([N+](=O)[O-])ccc(NCCN(C)C)c3c(N)c2c1	0.41 µM	2.64 µM	3.14 µM	2.76 µM	1.73 µM	3.62 µM	3.19 µM	4.5 µM	3.17 µM	1.27 µM	0.531 µM	2.62 µM	3.42 µM	1.08 µM	3.05 µM	3.31 µM	2.95 µM		
c1coc(-c2nccc3c2[nH]c2ccccc23)c1	> 100 µM	> 100 µM	> 100 µM	> 100 µM	> 100 µM	> 100 µM	> 100 µM	> 100 µM	> 100 µM	> 100 µM	> 100 µM		> 100 µM	> 100 µM	> 100 µM	> 100 µM	> 100 µM	> 100 µM	
Cn1c(-c2ccc(-c3cc(-c4cccs4)c(-c4cccs4)n3C)cc2)cc(-c2cccs2)c1-c1cccs1	> 100 µM	> 100 µM		> 100 µM	> 100 µM	> 100 µM	> 100 µM	> 100 µM	> 100 µM	> 100 µM	> 100 µM	> 100 µM	> 100 µM		> 100 µM		> 100 µM	> 100 µM	
COc1cc(CC(C)=O)cc(OC)c1	78.5 µM	> 100 µM	> 100 µM	> 100 µM	> 100 µM	> 100 µM	76.9 µM		> 100 µM	> 100 µM	> 100 µM	> 100 µM				> 100 µM	> 100 µM	> 100 µM	> 100 µM
CN(c1ccccc1)S(=O)(=O)c1ccc([N+](=O)[O-])cc1	> 100 µM	> 100 µM	> 100 µM	> 100 µM	> 100 µM	> 100 µM	> 100 µM		> 100 µM	> 100 µM			> 100 µM	> 100 µM	> 100 µM	> 100 µM	> 100 µM		> 100 µM
Cc1c(Cc2ccccc2)n(C(C)OCCN(OC(=O)Oc2ccccc2)C(=O)Oc2ccccc2)c(=O)[nH]c1=O (centres undefined)		57.3 µM		40.5 µM	32.1 µM	30.8 µM	41.4 µM	42.6 µM	85.1 µM	38.5 µM	50 µM	20.6 µM	33.9 µM		37.4 µM	37.7 µM	42.8 µM	31.5 µM	33 µM
Nc1nc(Cl)cc(OCC2(CO)CCCC2)n1	> 100 µM	> 100 µM	> 100 µM	> 100 µM	> 100 µM	> 100 µM	> 100 µM	> 100 µM	> 100 µM		> 100 µM	> 100 µM		> 100 µM	> 100 µM	> 100 µM	> 100 µM	> 100 µM	
Cn1cnc(N2CCCC2)c(C#N)c1=S	> 100 µM	> 100 µM	> 100 µM	> 100 µM	> 100 µM	> 100 µM	> 100 µM	> 100 µM	> 100 µM	> 100 µM	> 100 µM		> 100 µM	> 100 µM	> 100 µM	> 100 µM	> 100 µM	> 100 µM	
N=C(N)NCCCC(NC(=O)C1CC2CCCCC2N1C(=O)[C@H](NC(=O)C(CO)NC(=O)C(NC(=O)CNC(=O)[C@@H]1C[C@@H](O)CN1C(=O)C1CCCN1C(=O)C(CCCNC(=N)N)NC(=O)[C@@H](CCCNC(=N)N)NC(=N)CCCCCCC(=N)N[C@H](CCCNC(=N)N)C(=O)NC(CCCNC(=N)N)C(=O)N1CCCC1C(=O)N1C[C@H](O)C[C@H]1C(=O)NCC(=O)NC(C(=O)NC(CO)C(=O)N[C@@H](C(=O)N1C(C(=O)NC(CCCNC(=N)N)C(=O)O)CC2CCCCC21)C1Cc2ccccc2C1)C1Cc2ccccc2C1)C1Cc2ccccc2C1)C1Cc2ccccc2C1)C(=O)O (some centres undefined) (I: [ξR][ξP][Hyp]G[ξIgl][ξS][dIgl][ξOic][ξR]-OH / II: [ξR][ξP][Hyp]G[ξIgl][ξS][dIgl][ξOic][ξR]-OH; linker I:N-II:N via X54)	0.409 µM	3.91 µM	5.1 µM	4.16 µM	2.12 µM	4.3 µM	5.23 µM	6.82 µM	3.06 µM	3.49 µM	8.81 µM		3.71 µM	4.94 µM	5.32 µM	3.4 µM	4.56 µM		
CC(=O)O[C@H]1C(=O)[C@@]2(C)[C@H]([C@H](OC(=O)c3ccccc3)[C@]3(O)C[C@H](OC(=O)[C@H](O)[C@@H](NC(=O)c4ccccc4)c4ccc5ccccc5c4)C(C)=C1C3(C)C)[C@]1(OC(C)=O)CO[C@@H]1C[C@@H]2O	0.0327 µM	> 50 µM	14.7 µM	17.2 µM	1.96 µM	1.89 µM	0.0202 µM	0.148 µM		1.8 µM	> 11.2 µM	2.15 µM	> 41 µM	6.59 µM	0.152 µM		> 41 µM	0.228 µM	
CN1CCN(C(=O)CCC(=O)Nc2cc3c(c4ccccc24)-c2ccc4ccccc4c2C3)CC1		3.78 µM	3.71 µM	3.64 µM	3.23 µM	3.4 µM		5.81 µM	3.52 µM	2.93 µM			3.16 µM	4.04 µM	3.13 µM	3.22 µM	3.08 µM	2.7 µM	2.84 µM
Nn1c(Nc2ccc(S(N)(=O)=O)cc2)nnc(/C=C/c2c(O)ccc3ccccc23)c1=O	28.6 µM	> 100 µM	49.7 µM	27.3 µM	42.6 µM	96.8 µM	42 µM	> 100 µM	91.2 µM		18.8 µM		49.6 µM	27.1 µM	> 100 µM	42.8 µM	47.5 µM	51.9 µM	40.4 µM
CC1=NN(C(=O)Cc2ccccc2)C(=O)/C1=C\c1ccc([N+](=O)[O-])cc1		> 100 µM	> 100 µM	> 100 µM	> 100 µM	> 100 µM					> 100 µM		> 100 µM	> 100 µM	> 100 µM	> 100 µM	> 100 µM	> 100 µM	
